Where a name gives a salt, the structure may show the parent alone.
Tested on: β-catenin accumulation in the nucleus of murine C3H/10T1/2 cells
Test: Cellular beta-catenin stabilisation assay, Test (b)
Format: cell-based
Conditions: Mus musculus, 24 hours, read-out: EC50 versus cellular β-catenin accumulation in the nucleus of murine C3H/10T1/2 cells
Experimental: This assay uses an imaging based approach to measure the ability of test compounds to promote Beta-catenin stabilisation in the nucleus of C3H10T1/2 cells. Beta-catenin stabilisation is an indicator of GSK3β inhibition.
A C3H10T1/2 mouse clone 8 fibroblast cell line (American Type Culture Collection (ATCC, USA; catalogue number CRL 226) was routinely maintained at 37° C. with 5% CO2 in Basal Medium Eagle (BME, Invitrogen; Paisley, UK; catalogue number 41010) containing 10% (v/v) foetal bovine serum (FBS, Invitrogen, Paisley; UK; catalogue number 10270) and 2 mM L-glutamine (Invitrogen, Paisley, UK; catalogue number 25030024). For the assay, the cells were detached from the culture flask with ‘Accutase’ (Innovative Cell Technologies Inc., San Diego, USA; catalogue number AT104) using standard tissue culture methods and re-suspended in assay media comprising of BME containing 5% (v/v) FBS and 2 mM L-glutamine to give 55,555 cells per ml. Then, 90 μl of this solution was seeded into each well of a clear-bottom 96 well tissue culture plate (Perkin Elmer Viewplate; catalogue number 6005182) using a Multidrop Combi Dispenser (Thermo Fisher Scientific, Loughborough, UK) to give 5,000 cells per well. Plates were incubated overnight at 37° C. with 5% CO2 to allow the cells to adhere to the wells. Test compounds were prepared as 10 mM stock solutions in dimethylsulphoxide (DMSO) (Sigma-Aldrich; Poole, UK, catalogue number 49442-9) and serially diluted in DMSO. A Multidrop Combi was used to dispense 245 μl of pre-warmed assay media into a 96 well plate (Thermo Fisher Scientific, Loughborough, UK; catalogue number 50823925) before 5 μl of serially diluted compound was added to this intermediate plate. After mixing, 10 μl of each compound concentration was added to the cell plates. The total dilution factor from DMSO stock was 500 times. Control cells received either DMSO (0.2% v/v final concentration) or 10 μM positive control compound. The cells were incubated for 24 hours at 37° C. with 5% CO2.
After compound treatment the cells were fixed by the addition of 100 μl of 8% w/v paraformaldehyde (Sigma-Aldrich, Poole, UK; catalogue number P6148), directly into the assay plate wells. The cells were incubated at ambient temperature with fixative for 30 minutes before washing 3 times with 100 μl phosphate-buffered saline (PBS, Sigma-Aldrich; catalogue number D8537). […] The cells were then washed 3 times in 100 μl of PBS before the plates were sealed ready for image capture. Fluorescent images were captured and quantified using the Incell Analyser 3000 (GE Healthcare, USA). […]

COCCCNCCCc1ccc(-c2cnc(N)c(C(=O)Nc3cccnc3)n2)cc1 [Example 1, 3-Amino-6-(4-{3-[(3-methoxypropyl)amino]propyl}phenyl)-N-pyridin-3-ylpyrazine-2-carboxamide tri-hydrochloride]
EC50: ~242 nM
